From patent US8735411B2, “Macrocyclic benzofused pyrimidine derivatives” (AbbVie Inc., priority 2006, dated 2014) come the findings set out here.

Structures are written as SMILES.

For this experiment, the target named is histamine H4 receptor (Homo sapiens, UniProt Q9H3N8). The experiment can be described thus: In vitro histamine H4 potency in FLIPR (Ca2+ flux, HEK-293 cells coexpressing Gαqi5). Set-up: expressed in transfected cells. The format is cell-based. The conditions noted are these: Kb for antagonists and inverse agonists, EC50 for partial agonists. An excerpt: There are many methods available to show the effectiveness of compounds as histamine H4 receptor ligands. Histamine H4 receptors from mammalian species have been cloned. Methods to clone, express, and assess the potency and functional activity of such cloned genes are well known to those skilled in the art of molecular biology. […] Before testing, cells are loaded with a Ca^+2 sensitive fluorescent dye, in this case Fluo-4. In the case of partial agonist or agonist ligands, addition of compound to the cells leads to the increase in intracellular Ca^+2 which is detected by FLIPR (Fluorescence Imaging Plate Reader; Molecular Devices, Sunnyvale, Calif.) technology. […] The fluorescence intensities measured before addition of the test compound are subtracted from the fluorescence intensities at later time points. Peak response values determined at each concentration of ligand are expressed as a percentage of the response obtained with the full agonist histamine. Concentration versus response data are analyzed to obtain compound potency as Kb values for antagonists and inverse agonists and as EC50 values for partial agonists.
histamine H4 receptor, sequence (Q9H3N8 whole entry): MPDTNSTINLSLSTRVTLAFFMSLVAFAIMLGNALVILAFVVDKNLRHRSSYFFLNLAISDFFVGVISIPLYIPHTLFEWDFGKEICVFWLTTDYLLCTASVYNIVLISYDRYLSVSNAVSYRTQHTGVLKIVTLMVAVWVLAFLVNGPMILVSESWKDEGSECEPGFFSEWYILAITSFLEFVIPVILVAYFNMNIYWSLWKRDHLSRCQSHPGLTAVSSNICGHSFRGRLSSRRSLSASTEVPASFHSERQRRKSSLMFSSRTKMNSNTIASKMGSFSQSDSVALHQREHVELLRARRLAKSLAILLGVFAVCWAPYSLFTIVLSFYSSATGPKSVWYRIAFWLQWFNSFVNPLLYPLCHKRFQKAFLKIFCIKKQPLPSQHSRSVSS

`CNC1CN(c2nc(N)nc3c2CCc2ccccc2-3)C1` [Example 40, 4-(3-Methylamino-azetidin-1-yl)-5,6-dihydro-benzo[h]quinazolin-2-ylamine]: the Potency was determined as 34 nM. With `CN1CCN(c2nc(N)nc3c2OCc2ccccc2-3)CC1` [Example 41, 1-(4-Methyl-piperazin-1-yl)-9H-10-oxa-2,4-diaza-phenanthren-3-ylamine] the figure was 50 nM; with `CN1CCN(c2nc(N)nc3c2CCc2ccccc2-3)CC1` [Example 42, 4-(4-Methyl-piperazin-1-yl)-5,6-dihydro-benzo[h]quinazolin-2-ylamine], 13 nM.

Molecule `Nc1nc2c(c(N3CCNCC3)n1)CCc1ccccc1-2` [Example 44, 4-Piperazin-1-yl-5,6-dihydro-benzo[h]quinazolin-2-ylamine] registered a Potency of 24 nM. With `CN[C@@H]1CCN(c2nc(N)nc3c2CCOc2ccc(Cl)cc2-3)C1` [Example 45, 10-chloro-4-[(3R)-3-(methylamino)pyrrolidin-1-yl]-5,6-dihydro[1]benzoxepino[5,4-d]pyrimidin-2-amine] the figure was 69 nM; with `CN[C@@H]1CCN(c2nc(N)nc3c2CCOc2ccc(C)cc2-3)C1` [Example 46, 10-methyl-4-[(3R)-3-(methylamino)pyrrolidin-1-yl]-5,6-dihydro[1]benzoxepino[5,4-d]pyrimidin-2-amine], 100 nM; with `CN[C@@H]1CCN(c2nc(N)nc3c2CCOc2ccc(OC)cc2-3)C1` [Example 47, 10-methoxy-4-[(3R)-3-(methylamino)pyrrolidin-1-yl]-5,6-dihydro[1]benzoxepino[5,4-d]pyrimidin-2-amine], 912 nM. Next, `CN[C@@H]1CCN(c2nc(N)nc3c2CCOc2cc(Cl)ccc2-3)C1` [Example 48, 9-chloro-4-[(3R)-3-(methylamino)pyrrolidin-1-yl]-5,6-dihydro[1]benzoxepino[5,4-d]pyrimidin-2-amine]: 43 nM; `CN[C@@H]1CCN(c2nc(N)nc3c2CCOc2cc(C)ccc2-3)C1` [Example 49, 9-methyl-4-[(3R)-3-(methylamino)pyrrolidin-1-yl]-5,6-dihydro[1]benzoxepino[5,4-d]pyrimidin-2-amine]: 39 nM. With `CN[C@@H]1CCN(c2nc(N)nc3c2CCOc2cc(OC)ccc2-3)C1` [Example 50, 9-methoxy-4-[(3R)-3-(methylamino)pyrrolidin-1-yl]-5,6-dihydro[1]benzoxepino[5,4-d]pyrimidin-2-amine] the figure was 56 nM; with `CN[C@@H]1CCN(c2nc(N)nc3c2CCOc2c(Cl)cccc2-3)C1` [Example 51, 8-chloro-4-[(3R)-3-(methylamino)pyrrolidin-1-yl]-5,6-dihydro[1]benzoxepino[5,4-d]pyrimidin-2-amine], 41 nM. `CN[C@@H]1CCN(c2nc(N)nc3c2CCOc2c(C)cccc2-3)C1` [Example 52, 8-Methyl-4-((R)-3-methylamino-pyrrolidin-1-yl)-5,6-dihydro-7-oxa-1,3-diaza-dibenzo[a,c]cyclohepten-2-ylamine] registered a Potency of 56 nM. For `CN[C@@H]1CCN(c2nc(N)nc3c2CCOc2c(OC)cccc2-3)C1` [Example 53, 8-methoxy-4-[(3R)-3-(methylamino)pyrrolidin-1-yl]-5,6-dihydro[1]benzoxepino[5,4-d]pyrimidin-2-amine], the Potency is given as 100 nM. With `CN[C@@H]1CCN(c2nc(N)nc3c2CCCCc2ccccc2-3)C1` [Example 54, 4-[(3R)-3-(methylamino)pyrrolidin-1-yl]-5,6,7,8-tetrahydrobenzo[7,8]cycloocta[1,2-d]pyrimidin-2-amine] the figure was 32 nM.

`Nc1nc2c(c(N3CC[C@@H](N)C3)n1)CCCCc1ccccc1-2` [Example 55, 4-[(3R)-3-aminopyrrolidin-1-yl]-5,6,7,8-tetrahydrobenzo[7,8]cycloocta[1,2-d]pyrimidin-2-amine]: the Potency came to 123 nM. Next, `Nc1nc2c(c(N3CC[C@H](N)C3)n1)CCCCc1ccccc1-2` [Example 56, 4-[(3S)-3-aminopyrrolidin-1-yl]-5,6,7,8-tetrahydrobenzo[7,8]cycloocta[1,2-d]pyrimidin-2-amine]: 115 nM. Next, `Nc1nc2c(c(N3CC(N)C3)n1)CCCCc1ccccc1-2` [Example 57, 4-(3-aminoazetidin-1-yl)-5,6,7,8-tetrahydrobenzo[7,8]cycloocta[1,2-d]pyrimidin-2-amine]: 562 nM; `Nc1nc2c(c(N3CC[C@@H]4CNC[C@@H]43)n1)CCCCc1ccccc1-2` [Example 58, 4-[(3aR,6aR)-hexahydropyrrolo[3,4-b]pyrrol-1(2H)-yl]-5,6,7,8-tetrahydrobenzo[7,8]cycloocta[1,2-d]pyrimidin-2-amine]: 182 nM; `Nc1nc2c(c(N3CC4CCCNC4C3)n1)CCCc1ccccc1-2` (stereo not drawn) [Example 59, 4-octahydro-6H-pyrrolo[3,4-b]pyridin-6-yl-6,7-dihydro-5H-benzo[6,7]cyclohepta[1,2-d]pyrimidin-2-amine]: 44 nM. Next, `Nc1nc2c(c(N3CCC4(CCNC4)CC3)n1)CCCc1ccccc1-2` [Example 60, 4-(2,8-diazaspiro[4.5]dec-8-yl)-6,7-dihydro-5H-benzo[6,7]cyclohepta[1,2-d]pyrimidin-2-amine]: 724 nM; `Nc1nc2c(c(N3CCCNCCC3)n1)CCCc1ccccc1-2` [Example 61, 4-(1,5-diazocan-1-yl)-6,7-dihydro-5H-benzo[6,7]cyclohepta[2-d]pyrimidin-2-amine]: 8.7 nM; `Nc1nc2c(c(N3CCC(N)CC3)n1)CCCc1ccccc1-2` [Example 62, 4-(4-aminopiperidin-1-yl)-6,7-dihydro-5H-benzo[6,7]cyclohepta[1,2-d]pyrimidin-2-amine]: 389 nM. As for `Nc1nc(NCCC2CCN2)c2c(n1)-c1ccccc1CCC2` (stereo not drawn) [Example 63, N^4-(2-azetidin-2-ylethyl)-6,7-dihydro-5H-benzo[6,7]cyclohepta[1,2-d]pyrimidine-2,4-diamine], the Potency is on record as 269 nM. Next, `Nc1nc(NC[C@H]2CCN2)c2c(n1)-c1ccccc1CCC2` [Example 64, N^4-[(2R)-azetidin-2-ylmethyl]-6,7-dihydro-5H-benzo[6,7]cyclohepta[1,2-d]pyrimidine-2,4-diamine]: 1549 nM; `CN1CCC(Nc2nc(N)nc3c2CCCc2ccccc2-3)CC1` [Example 65, N^4-(1-methylpiperidin-4-yl)-6,7-dihydro-5H-benzo[6,7]cyclohepta[1,2-d]pyrimidine-2,4-diamine]: 13 nM. The molecule `CN1[C@@H]2CC[C@H]1CC(Nc1nc(N)nc3c1CCCc1ccccc1-3)C2` (stereo partly drawn) [Example 66, N^4-[(1R,5S)-8-methyl-8-azabicyclo[3.2.1]oct-3-yl]-6,7-dihydro-5H-benzo[6,7]cyclohepta[1,2-d]pyrimidine-2,4-diamine] yielded a Potency of 17 nM. Next, `CC1CCN(c2nc(N)nc3c2CCCc2ccccc2-3)CCN1` (stereo not drawn) [Example 67, 4-(5-methyl-1,4-diazepan-1-yl)-6,7-dihydro-5H-benzo[6,7]cyclohepta[1,2-d]pyrimidin-2-amine]: 69 nM; `CN1CCC(Oc2nc(N)nc3c2CCCc2ccccc2-3)CC1` [Example 68, 4-(1-Methyl-piperidin-4-yloxy)-6,7-dihydro-5H-benzo[6,7]cyclohepta[1,2-d]pyrimidin-2-ylamine]: 15 nM.

Turning to `CN1CCCC(Oc2nc(N)nc3c2CCCc2ccccc2-3)C1` (stereo not drawn) [Example 69, 4-(1-Methyl-piperidin-3-yloxy)-6,7-dihydro-5H-benzo[6,7]cyclohepta[1,2-d]pyrimidin-2-ylamine], the Potency worked out at 3162 nM.

The molecule `CN1CC[C@@H](Oc2nc(N)nc3c2CCCc2ccccc2-3)C1` [Example 70, 4-((R)-1-Methyl-pyrrolidin-3-yloxy)-6,7-dihydro-5H-benzo[6,7]cyclohepta[1,2-d]pyrimidin-2-ylamine] yielded a Potency of 37 nM. Next, `CN1CC[C@H](Oc2nc(N)nc3c2CCCc2ccccc2-3)C1` [Example 71, 4-((S)-1-Methyl-pyrrolidin-3-yloxy)-6,7-dihydro-5H-benzo[6,7]cyclohepta[1,2-d]pyrimidin-2-ylamine]: 263 nM; `Nc1nc(OC2CCNCC2)c2c(n1)-c1ccccc1CCC2` [Example 72, 4-(Piperidin-4-yloxy)-6,7-dihydro-5H-benzo[6,7]cyclohepta[1,2-d]pyrimidin-2-ylamine]: 1097 nM; `Nc1nc(O[C@H]2CCNC2)c2c(n1)-c1ccccc1CCC2` [Example 73, 4-((S)-Pyrrolidin-3-yloxy)-6,7-dihydro-5H-benzo[6,7]cyclohepta[1,2-d]pyrimidin-2-ylamine]: 468 nM.

In the case of `CN(C)CCOc1nc(N)nc2c1CCCc1ccccc1-2` [Example 74, 4-(2-Dimethylamino-ethoxy)-6,7-dihydro-5H-benzo[6,7]cyclohepta[1,2-d]pyrimidin-2-ylamine], the Potency came to 219 nM. With `Nc1nc2c(c(N3CCC4(CCCCN4)CC3)n1)CCCc1ccccc1-2` [Example 75, 4-(1,9-Diaza-spiro[5.5]undec-9-yl)-6,7-dihydro-5H-benzo[6,7]cyclohepta[1,2-d]pyrimidin-2-ylamine] the figure was 4898 nM.

Take `CN(C)[C@@H]1CCN(c2nc(N)nc3c2CCCc2ccccc2-3)C1` [Example 76, 4-((R)-3-Dimethylamino-pyrrolidin-1-yl)-6,7-dihydro-5H-benzo[6,7]cyclohepta[1,2-d]pyrimidin-2-ylamine]: the Potency was 55 nM.
